Test results as given in ChEMBL document CHEMBL4387793, “Styrenes from the Seeds of Atalantia monophylla” (J Nat Prod, 2019).

Experiments:
HepG2 = assay: Cytotoxicity against human HepG2 cells by SRB assay; format: functional, cell-based
[1] = Cytotoxicity against human KKU-M156 cells by SRB assay; format: functional, cell-based

| SMILES | IC50 (HepG2) [µM] | IC50 [1] [µM] |
| --- | --- | --- |
| COc1cc(OC)c2c(c1)O[C@@H](c1c(O)cc(OC)cc1OC)C[C@@H]2C | < 10 | < 10 |
| COc1cc(OC)c(/C=C/[C@H](C)c2c(OC)cc(OC)cc2OC)c(OC)c1 | < 10 | < 10 |
| COc1cc(OC)c2c(c1)O[C@@H](c1c(OC)cc(OC)cc1OC)C[C@@H]2C | < 10 | < 10 |
| COc1cc(OC)c([C@H]2CC[C@H]2c2c(OC)cc(OC)cc2OC)c(OC)c1 | < 10 | < 10 |
